Source: ChEMBL document CHEMBL1201862, “PubChem BioAssay data set” (2004)
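1) Cells in 96-well plates. 2) Compound, 48 h, 5 concentrations. 3) Linear interpolation between surrounding doses. 4) Unreached endpoint = highest concentration. GI50 = concentration required for 50% inhibition of growth.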 Calls of active or inactive are those of the source. Cut-off read from the data, not from the text of the source: active = GI50 up to about 1.1 µM and inactive = higher.

Legend:
Assay in all cases: growth of human tumour cells (NCI), 48 h
[1] = test system: SF-539
[2] = test system: RXF 393
[3] = test system: OVCAR-5
[4] = test system: Malme-3M
[5] = test system: MCF7
[6] = test system: MOLT-4
[7] = test system: M14
[8] = test system: IGROV-1
[9] = test system: DU-145
[10] = test system: TK-10
[11] = test system: MDA-MB-435
[12] = test system: SK-MEL-28
[13] = test system: OVCAR-4
[14] = test system: COLO 205
[15] = test system: SK-OV-3
[16] = test system: RPMI-8226
[17] = test system: A549
[18] = test system: ACHN
[19] = test system: SF-295

Measured: GI50

CCCCn1cc(C(=O)O)c(=O)c2c3sccc3ccc21
inactive: [1] > 100 µM | [2] > 100 µM | [3] > 100 µM | [4] > 100 µM | [5] > 100 µM | [6] > 100 µM | [7] > 100 µM | [8] > 100 µM | [9] > 100 µM | [10] > 100 µM | [11] > 100 µM | [12] > 100 µM | [13] > 100 µM | [14] > 100 µM | [15] > 100 µM | [16] > 100 µM | [17] > 100 µM | [18] > 100 µM | [19] 74.8 µM

CC1(c2cccs2)CC(c2cccs2)=C(C#N)C(=C(C#N)C#N)N1 (stereo unspecified)
inactive: [1] 25.2 µM | [2] 18.3 µM | [3] 21.5 µM | [4] 19.2 µM | [5] 18.5 µM | [6] 44.7 µM | [7] 20.4 µM | [8] 17.7 µM | [9] 15.6 µM | [10] 21 µM | [11] 17.4 µM | [12] 20.4 µM | [13] 16.4 µM | [14] 16.9 µM | [15] 21.6 µM | [16] 17.5 µM | [17] 22 µM | [18] 17.5 µM | [19] 16.9 µM

O=c1[nH]c2cccc([N+](=O)[O-])c2c(=O)n1-c1ccc(Cl)cc1
inactive: [1] 12.3 µM | [2] 17.1 µM | [3] 16.3 µM | [4] 12.8 µM | [5] 9.91 µM | [6] 19 µM | [7] 10.7 µM | [8] 16.7 µM | [9] 15.1 µM | [10] 14.9 µM | [11] 6.64 µM | [12] 13.4 µM | [13] 5.07 µM | [14] 4.24 µM | [15] 14.3 µM | [16] 13.6 µM | [17] 12.4 µM | [18] 8.51 µM | [19] 1.89 µM

COc1cc2c(cc1O)[C@]1(Cc3ccc4c(c3C1=O)OCO4)N(C)CC2
inactive: [1] > 100 µM | [2] > 100 µM | [3] > 100 µM | [4] > 100 µM | [5] > 100 µM | [6] > 100 µM | [7] > 100 µM | [8] > 100 µM | [9] > 100 µM | [10] > 100 µM | [11] > 100 µM | [12] > 100 µM | [13] > 100 µM | [14] > 100 µM | [15] > 100 µM | [16] > 100 µM | [17] > 100 µM | [18] > 100 µM | [19] > 100 µM
